Tests used:
preosteoblast cells [1] = assay: Osteoblast mineralized nodules, alizarin red staining (Example 1-2); format: cell-based, mice; settings: vs negative control (0 μM); for amount of pigments colored in the nodules (differentiation of preosteoblast cells): alizarin red staining, 21 days, 0 to 50 μM, FIG. 1; for effect on the differentiation into osteoblasts (quantified, absorbance 570 nm): concentration series, FIG. 2 and FIG. 3
Procedure: In order to isolate preosteoblast cells, the calvarium was removed from 1- to 3-day-old mice, and then preosteoblast cells were obtained via a process in which the calvarium was subjected to treatment with 1 mg/ml collagenase and 2 mg/ml dispase.
Here, the medium for differentiation induction was replaced with fresh medium at 2- to 3-day intervals, and differentiation induction was performed for a total of 21 days. In order to identify the differentiation into osteoblasts, alizarin red staining was performed. Differentiation-induced cells were fixed by being incubated with 10% neutral formalin at 4° C. for 20 minutes, and then stained by being incubated with 1.36% alizarin red solution (pH 4.1 to 4.3) for 40 minutes. The results are illustrated in FIG. 1.
The results obtained by performing quantification with tauroursodeoxycholic acid, deoxycholic acid, or taurocholic acid are illustrated in FIG. 3.

[2] = tested on: ovary-extracted mouse model; assay: Drug administration in ovary-extracted mouse model, femur micro-CT (Example 2-1); format: in vivo, C57BL/6 female mice; settings: 5 mg/kg oral, once a day, five days a week, 4 weeks; vs OVX group receiving vehicle only; FIG. 7
Text: Twenty-four 8-week-old C57BL/6 female mice were randomly divided into three groups, that is, control group (sham), ovary-extracted group (OVX), and OVX+Formula 2 group obtained by administering the compound of Formula 2 to the ovary-extracted group, each group consisting of 8 mice. All three groups were anesthetized using zoletil and rompun. Then, the OVX and OVX+Formula 2 groups were subjected to ovary extraction, and then sutured. The control group was subjected to ovary exposure, and then sutured without ovarian removal. Osteoporosis was induced for 4 weeks.
Starting from 4 weeks after ovarian extraction, on five days a week and once a day, the control group and the OVX group orally received 200 μl of vehicle (tetrahydrofuran:PEG-400:water=1:6:3 in volume), and the OVX+Formula 2 group orally received 200 μl obtained by mixing 5 mg/kg of compound of Formula 2 with a vehicle.
After oral administration for 4 weeks, all mice were sacrificed and the femur was extracted therefrom. The extracted femur was fixed in 10% neutral formalin. Photographs were taken at 7.1 μm voxel size using Skyscan 1173 micro-CT machine, and then bone density was analyzed by CTAn program. The results are illustrated in FIG. 7.

preosteoblast cells [3] = assay: Differentiation into osteoblasts, alizarin red S staining, cholesterol sulphate with or without Formula 2 (Example 2-2); format: cell-based, mice; settings: FIG. 8
Procedure: The calvarium was removed from 1- to 3-day-old mice, and then subjected to enzymatic treatment with 1 mg/ml collagenase and 2 mg/ml dispase, to obtain preosteoblast cells. […] Then, differentiation into osteoblasts was induced. Replacement of the medium for differentiation was performed at 2- to 3-day intervals and differentiation was induced for a total of 14 to 21 days. Alizarin red S staining was used to evaluate the differentiation into osteoblasts, thereby quantitatively evaluate the degree of mineralized nodule production. The differentiated cells were fixed in 10% neutral formalin at 4° C. for 20 minutes, and then stained with 1.36% alizarin red solution (pH 4.1 to 4.3) for 40 minutes. The stained pattern was photographed or scanned. […] The degree of differentiation into osteoblasts is illustrated in FIG. 8.

SMILES | amount of pigments colored in the nodules (differentiation of preosteoblast cells) (preosteoblast cells [1]) | effect on the differentiation into osteoblasts (quantified, absorbance 570 nm) (preosteoblast cells [1]) | also measured
C[C@H](CCC(=O)O)[C@H]1CC[C@H]2[C@@H]3CC[C@@H]4C[C@H](O)CC[C@]4(C)[C@H]3C[C@H](O)[C@]12C [deoxycholic acid] | no effect | – | –
NS(=O)(=O)Oc1ccc2c3c(c(=O)oc2c1)CCCCC3 [Formula 2, 6-oxo-6,7,8,9,10,11-hexahydrocyclohepta[c]chromen-3-yl sulfamate] | – | – | increase in the volume of trabecular bone [2]: 90%; differentiation into osteoblasts (preosteoblast cells [3]; 5 μM compound of Formula 2 alone): does not increase; differentiation into osteoblasts (preosteoblast cells [3]; 5 μM compound of Formula 2 in combination with 0 to 50 μM cholesterol sulphate): further enhances an effect of cholesterol sulphate
C[C@H](CCC(=O)NCCS(=O)(=O)O)[C@H]1CC[C@H]2[C@@H]3[C@@H](O)C[C@@H]4C[C@H](O)CC[C@]4(C)[C@H]3CC[C@]12C [tauroursodeoxycholic acid] | no effect | no significant difference | –
C[C@H](CCC(=O)NCCS(=O)(=O)O)[C@H]1CC[C@H]2[C@@H]3[C@H](O)C[C@@H]4C[C@H](O)CC[C@]4(C)[C@H]3C[C@H](O)[C@]12C [taurocholic acid] | no effect | no significant difference | –
CC(C)CCC[C@@H](C)[C@H]1CC[C@H]2[C@@H]3CC=C4C[C@@H](OS(=O)(=O)O)CC[C@]4(C)[C@H]3CC[C@]12C [Formula 1, [(3S,8S,9S,10R,13R,14S,17R)-10,13-dimethyl-17-[(2R)-6-methylheptan-2-yl]-2,3,4,7,8,9,11,12,14,15,16,17-dodecahydro-1H-cyclopenta[a]phenanthren-3-yl] hydrogen sulphate] | – | – | differentiation into osteoblasts (preosteoblast cells [3]; 0 to 50 μM cholesterol sulphate alone): increases the differentiation into osteoblasts in a dose-dependent manner

Source: patent US11253498B2, “Pharmaceutical composition for treatment of bone-related disease” (Nexyon Biotech Co., Ltd., priority 2017, dated 2022)
